System: model of sephadex-induced eosinophilic lung inflammation in rats
Experiment: Content of cell elements in BAL in the model of sephadex-induced eosinophilic lung inflammation in rats
Format: in vivo, male Wistar rats
Details: Table 8, four times, BAL 48 hours after sephadex, n = 10
Procedure: The model of sephadex-induced eosinophilic lung inflammation in rats was realized by a standard method [Evaldsson C, Rydén I, Uppugunduri S. Isomaltitol exacerbates neutrophilia but reduces eosinophilia: new insights into the sephadex model of lung inflammation//Int Arch Allergy Immunol. 2011; 154(4):286-94]. Sephadex G-200 (Pharmacia, Sweden) was administered one time by inhalation to male Wistar rats at a dose of 5 mg/kg. The studied compounds were administered to the animals by the intragastric route four times: 24 hours and 1 hour before and 24 hours and 45 hours after administration of sephadex. The reference preparation, budesonide, was administered according to the same scheme, by inhalation at a dose of 0.5 mg/kg. Bronchoalveolar lavage was taken 48 hours after the inhalation of sephadex, and the total lymphocyte count and leukocyte formula in the lavage were determined. The number of rats in a group was 7 to 10.

O=C1CCCC(=O)N1CCc1cnc[nH]1 [Compound 1, 1-(2-(1H-imidazol-4-yl)ethyl)piperidine-2,6-dione]
Eosinophils, content of cell elements in 1 μL of BAL (0.06 mg/kg intragastric): 118 ± 27*& in 1 μL of BAL
Leukocytes, content of cell elements in 1 μL of BAL (0.06 mg/kg intragastric): 2500 ± 307 in 1 μL of BAL
Lymphocytes, content of cell elements in 1 μL of BAL (0.06 mg/kg intragastric): 128 ± 48 in 1 μL of BAL
Macrophages, content of cell elements in 1 μL of BAL (0.06 mg/kg intragastric): 1417 ± 131 in 1 μL of BAL
Neutrophils, content of cell elements in 1 μL of BAL (0.06 mg/kg intragastric): 837 ± 231 in 1 μL of BAL
Eosinophils, content of cell elements in 1 μL of BAL (0.18 mg/kg intragastric): 174 ± 64*& in 1 μL of BAL
Leukocytes, content of cell elements in 1 μL of BAL (0.18 mg/kg intragastric): 2665 ± 455 in 1 μL of BAL
Lymphocytes, content of cell elements in 1 μL of BAL (0.18 mg/kg intragastric): 143 ± 54 in 1 μL of BAL
Macrophages, content of cell elements in 1 μL of BAL (0.18 mg/kg intragastric): 1661 ± 260 in 1 μL of BAL
Neutrophils, content of cell elements in 1 μL of BAL (0.18 mg/kg intragastric): 597 ± 168 in 1 μL of BAL
Eosinophils, content of cell elements in 1 μL of BAL (0.54 mg/kg intragastric): 126 ± 43*& in 1 μL of BAL
Leukocytes, content of cell elements in 1 μL of BAL (0.54 mg/kg intragastric): 2120 ± 218*& in 1 μL of BAL
Lymphocytes, content of cell elements in 1 μL of BAL (0.54 mg/kg intragastric): 196 ± 63 in 1 μL of BAL
Macrophages, content of cell elements in 1 μL of BAL (0.54 mg/kg intragastric): 1446 ± 113 in 1 μL of BAL
Neutrophils, content of cell elements in 1 μL of BAL (0.54 mg/kg intragastric): 352 ± 135 in 1 μL of BAL
Eosinophils, content of cell elements in 1 μL of BAL (1.8 mg/kg intragastric): 129 ± 44*& in 1 μL of BAL
Leukocytes, content of cell elements in 1 μL of BAL (1.8 mg/kg intragastric): 1915 ± 250*& in 1 μL of BAL
Lymphocytes, content of cell elements in 1 μL of BAL (1.8 mg/kg intragastric): 122 ± 49 in 1 μL of BAL
Macrophages, content of cell elements in 1 μL of BAL (1.8 mg/kg intragastric): 1214 ± 130 in 1 μL of BAL
Neutrophils, content of cell elements in 1 μL of BAL (1.8 mg/kg intragastric): 451 ± 149 in 1 μL of BAL
Eosinophils, content of cell elements in 1 μL of BAL (5.4 mg/kg intragastric): 152 ± 56*& in 1 μL of BAL
Leukocytes, content of cell elements in 1 μL of BAL (5.4 mg/kg intragastric): 2340 ± 322 in 1 μL of BAL
Lymphocytes, content of cell elements in 1 μL of BAL (5.4 mg/kg intragastric): 170 ± 45 in 1 μL of BAL
Macrophages, content of cell elements in 1 μL of BAL (5.4 mg/kg intragastric): 1525 ± 199 in 1 μL of BAL
Neutrophils, content of cell elements in 1 μL of BAL (5.4 mg/kg intragastric): 492 ± 129 in 1 μL of BAL
Eosinophils, content of cell elements in 1 μL of BAL (18 mg/kg intragastric): 69 ± 22*& in 1 μL of BAL
Leukocytes, content of cell elements in 1 μL of BAL (18 mg/kg intragastric): 2135 ± 205*& in 1 μL of BAL
Lymphocytes, content of cell elements in 1 μL of BAL (18 mg/kg intragastric): 168 ± 44 in 1 μL of BAL
Macrophages, content of cell elements in 1 μL of BAL (18 mg/kg intragastric): 1601 ± 134 in 1 μL of BAL
Neutrophils, content of cell elements in 1 μL of BAL (18 mg/kg intragastric): 297 ± 89*& in 1 μL of BAL

Source: US10220029B2, “Pharmaceutical composition comprising glutarimide derivatives and use thereof in the treatment of eosinophilic diseases” (OBSCHESTVO S ORGANICHENNOI OTVETSTVENNOSTIYU …, priority 2013, dated 2019)
